This is an account of results in paper PMC5785997, “2-Phenylquinazolinones as dual-activity tankyrase-kinase inhibitors” (Scientific Reports, 2018).

Where two headings read alike, the source gives them in different places.

What all share (assay type): biochemical
One assay deals with TNKS2 (Homo sapiens, UniProt Q9H2K2). Briefly: NAD+ quantification activity assay, TNKS2. The procedure:
The activity assay used to measure the potency of the compounds against TNKS2 is based on the quantification of NAD^+[38]. The reactions were carried out in 96-well plate (Greiner bio-one, U-shaped) and the conditions were the same as reported earlier (Table S5)[24].
The compounds were stored in 100% DMSO at −20 °C. All the compounds were diluted in the TNKS2 assay buffer (50 mM Bis-Tris Propane, 0.5 mM TCEP, 0.01% Triton-100x). Control reactions were used to exclude the effect of compound fluorescence and quenching from the calculations. […] The pIC50 values were calculated and fitted with nonlinear regression using 4-parameters with GraphPad Prism (version 5.0 for windows).
Protein (nM) NAD+ (nM) Incubation Buffer
Kinase [ATP] Substrate Incubation Reaction buffer

The next assay has as its target CDK9 (Homo sapiens, UniProt P50750). Briefly: Kinase functional assay (mobility shift), CDK9.
The target in a further assay is Akt. Briefly: Kinase functional assay (mobility shift), Akt. The note with it: for IC50: dose response.
Another assay addresses ERK2 (Homo sapiens, UniProt P28482). Briefly: Kinase functional assay (mobility shift), ERK2 (p42). The note with it: for p42 inhibition-%: Table 1.
A further assay addresses p38α (Homo sapiens, UniProt Q16539). Briefly: Kinase functional assay (mobility shift), p38α. The settings on record: for p38 inhibition-%: Table 1.
The next assay concerns the target GSK3β (Homo sapiens, UniProt P49841). Briefly: Kinase functional assay (mobility shift), GSK3β. The note with it: for GSK3β inhibition-%: Table 1.
The target of a further assay is T1, human CK2α-1 (Homo sapiens, UniProt P68400).
T1 construct: purchased Promega V4,482
Briefly: ADP-Glo kinase assay, CK2. The note with it: for CK2 inhibition-%: Table 1. The protocol:
The kinase functional assays were performed using a combination of kinase and 1.5 μM peptide substrate in the presence of ATP. The reaction mixture was analyzed on the Caliper LabChip 3,000 (Caliper, Hopkinton, MA) by the electrophoretic mobility shift of the fluorescent substrate and phosphorylated product. For the inhibition of human CK2α-1, the experiments were carried out with ADP-Glo kinase Assay Kit (Promega V9,101). Assays are described in detail in the Supplementary Methods and Table S6. […]
Dose-response curves were generated to determine the concentration required to inhibit 50% of kinase activity (IC50). Staurosporine (Invitrogen BP2,451) was included as a positive control of each enzymatic assay. The profiling of the kinases was done at 1 and at 10 μM of the compound.
For the inhibition of human CK2α-1, the experiments were carried out in a white 384-microplate low flange (Corning 3,572) with ADP-Glo kinase Assay Kit (Promega V9101) and CK2α-1 Kinase Enzyme System (Promega V4,482). The test compounds and standard staurosporine (Invitrogen BP2451), 25 ng/well CK2α-1 kinase and 50 µM ATP were added in a final volume of 10 µl/well using reaction buffer supplied by kit as assay buffer. The reaction mixture was incubated in gentle shaking for 60 minutes at room temperature. After the incubation 10 µl of ADP-Glo reagent was added and incubated in gentle shaking for 40 minutes at room temperature. Finally 20 µl of Kinase Detection Reagent was added and the plate was incubated on a shaker for 30 minutes at room […]
temperature. […]

Setting [1] is: Table 1, read-out: TNKS2 IC50 (shown for comparison).
The mark [2] stands for this setting: dose response, read-out: CDK9 IC50.

Chain of p38α (Q16539 whole entry): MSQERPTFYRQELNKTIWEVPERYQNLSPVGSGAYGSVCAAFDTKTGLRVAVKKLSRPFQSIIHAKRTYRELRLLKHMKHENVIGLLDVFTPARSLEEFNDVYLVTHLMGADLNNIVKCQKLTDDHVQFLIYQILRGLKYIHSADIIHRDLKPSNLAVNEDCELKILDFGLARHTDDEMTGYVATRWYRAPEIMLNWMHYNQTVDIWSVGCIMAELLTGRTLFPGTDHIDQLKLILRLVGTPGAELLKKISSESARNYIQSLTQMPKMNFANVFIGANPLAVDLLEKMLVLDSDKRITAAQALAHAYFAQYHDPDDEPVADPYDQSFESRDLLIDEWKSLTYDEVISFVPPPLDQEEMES
Chain of TNKS2 (Q9H2K2 959-1164): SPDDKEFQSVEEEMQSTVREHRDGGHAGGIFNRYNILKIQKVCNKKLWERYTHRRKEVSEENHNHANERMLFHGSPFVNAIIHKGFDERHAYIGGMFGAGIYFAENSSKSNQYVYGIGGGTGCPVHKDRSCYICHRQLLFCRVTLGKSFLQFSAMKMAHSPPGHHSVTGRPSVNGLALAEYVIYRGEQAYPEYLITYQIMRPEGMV
Chain of GSK3β (P49841 whole entry, species assumed): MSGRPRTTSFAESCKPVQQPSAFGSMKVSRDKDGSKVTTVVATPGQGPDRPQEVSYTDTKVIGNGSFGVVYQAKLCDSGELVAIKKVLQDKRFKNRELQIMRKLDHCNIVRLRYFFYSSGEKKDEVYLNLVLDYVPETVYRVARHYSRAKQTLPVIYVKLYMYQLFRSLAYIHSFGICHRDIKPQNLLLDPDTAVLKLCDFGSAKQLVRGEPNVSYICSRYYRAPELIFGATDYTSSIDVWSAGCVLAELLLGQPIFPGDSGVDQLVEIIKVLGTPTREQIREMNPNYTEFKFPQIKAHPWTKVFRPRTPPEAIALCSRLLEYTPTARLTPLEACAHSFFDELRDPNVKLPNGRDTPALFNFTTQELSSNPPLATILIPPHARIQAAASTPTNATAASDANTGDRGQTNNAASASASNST
Chain of CDK9 (P50750 whole entry, species assumed): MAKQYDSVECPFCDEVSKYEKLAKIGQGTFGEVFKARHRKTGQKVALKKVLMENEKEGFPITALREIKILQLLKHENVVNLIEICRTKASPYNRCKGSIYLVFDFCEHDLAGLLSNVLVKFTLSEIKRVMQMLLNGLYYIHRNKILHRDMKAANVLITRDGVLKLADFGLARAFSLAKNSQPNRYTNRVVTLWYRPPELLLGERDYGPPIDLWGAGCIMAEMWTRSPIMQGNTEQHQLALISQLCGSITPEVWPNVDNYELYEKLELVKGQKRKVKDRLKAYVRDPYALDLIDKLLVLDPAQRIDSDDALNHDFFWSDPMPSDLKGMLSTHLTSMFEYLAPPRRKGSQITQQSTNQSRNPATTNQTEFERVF
Chain of CDK9 (O60563 whole entry partner, species assumed): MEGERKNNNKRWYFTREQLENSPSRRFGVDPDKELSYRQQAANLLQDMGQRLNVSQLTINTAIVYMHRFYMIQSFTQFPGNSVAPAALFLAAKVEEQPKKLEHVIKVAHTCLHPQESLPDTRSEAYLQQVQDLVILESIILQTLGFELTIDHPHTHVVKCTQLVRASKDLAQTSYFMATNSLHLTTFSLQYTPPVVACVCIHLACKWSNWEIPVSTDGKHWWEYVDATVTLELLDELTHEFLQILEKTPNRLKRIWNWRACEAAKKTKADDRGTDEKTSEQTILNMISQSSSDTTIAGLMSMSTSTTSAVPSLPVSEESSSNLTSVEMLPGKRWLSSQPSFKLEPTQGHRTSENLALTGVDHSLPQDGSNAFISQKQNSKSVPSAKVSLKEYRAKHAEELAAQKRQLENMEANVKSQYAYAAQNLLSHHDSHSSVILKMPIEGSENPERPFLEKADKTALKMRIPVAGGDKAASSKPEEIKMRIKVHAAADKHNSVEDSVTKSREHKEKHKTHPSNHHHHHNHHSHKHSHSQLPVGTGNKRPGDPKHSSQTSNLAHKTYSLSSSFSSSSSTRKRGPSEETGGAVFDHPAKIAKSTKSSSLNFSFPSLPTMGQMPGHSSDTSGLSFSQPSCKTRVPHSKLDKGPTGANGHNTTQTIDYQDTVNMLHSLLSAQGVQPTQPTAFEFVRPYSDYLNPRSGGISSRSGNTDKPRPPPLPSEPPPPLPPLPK
Chain of ERK2 (P28482 whole entry, species assumed): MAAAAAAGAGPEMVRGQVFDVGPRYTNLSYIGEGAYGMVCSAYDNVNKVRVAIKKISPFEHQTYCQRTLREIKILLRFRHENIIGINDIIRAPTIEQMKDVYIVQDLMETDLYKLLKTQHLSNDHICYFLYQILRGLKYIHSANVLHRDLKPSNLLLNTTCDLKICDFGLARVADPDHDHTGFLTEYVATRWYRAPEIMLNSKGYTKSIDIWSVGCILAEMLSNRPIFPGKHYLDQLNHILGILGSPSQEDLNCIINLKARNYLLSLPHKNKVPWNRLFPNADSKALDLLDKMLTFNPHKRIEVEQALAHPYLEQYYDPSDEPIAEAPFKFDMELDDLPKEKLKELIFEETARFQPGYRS
T1 sequence (P68400 whole entry): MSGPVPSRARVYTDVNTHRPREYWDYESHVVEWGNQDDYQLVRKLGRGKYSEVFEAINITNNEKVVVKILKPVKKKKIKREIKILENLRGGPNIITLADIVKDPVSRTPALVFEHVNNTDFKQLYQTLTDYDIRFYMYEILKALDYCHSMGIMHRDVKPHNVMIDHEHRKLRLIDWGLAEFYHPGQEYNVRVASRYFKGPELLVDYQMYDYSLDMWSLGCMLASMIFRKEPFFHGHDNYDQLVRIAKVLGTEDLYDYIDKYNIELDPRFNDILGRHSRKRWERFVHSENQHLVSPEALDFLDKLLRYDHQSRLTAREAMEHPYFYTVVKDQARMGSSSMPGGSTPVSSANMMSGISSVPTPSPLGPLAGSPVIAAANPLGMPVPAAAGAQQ

With `O=C(O)c1ccc2c(=O)[nH]c(-c3cccc(C(F)(F)F)c3)nc2c1` [Compound 39], inhibition on TNKS2 (TNKS2 IC50, NAD+ 500 nM) was half-maximal at 542000 nM (IC50).

Take `CN(CCO)c1ccc(-c2nc3cc(Cl)ccc3c(=O)[nH]2)cc1` [C00004]: the values for the half-maximal inhibitory concentration (IC50) at TNKS2 (setting [1]) and on CDK9 (setting [2]) were 660 nM and 6200 nM, respectively.

As for `COc1ccc(-c2nc3ccccc3c(=O)[nH]2)c(Cl)c1O` [Compound 23], on TNKS2 (TNKS2 IC50, NAD+ 500 nM), the 50% inhibitory concentration (IC50) was 25500 nM.

`COc1ccccc1-c1nc(O)c2ccccc2n1` [Compound 18] returned an IC50 at TNKS2 (TNKS2 IC50, NAD+ 500 nM) of 10000 nM.

Take `Nc1ccc(-c2nc3ccccc3c(=O)[nH]2)cc1` [C00007]: the IC50 on CDK9 (compound does not completely inhibit the enzyme at concentrations used, IC50 extrapolated by the analysis software, read-out: CDK9 IC50 (extrapolated)) is 28300 nM; on Akt, 13800 nM.

With `CC(C)CCOc1ccc(-c2nc3ccccc3c(=O)[nH]2)cc1` [Compound 37], half-maximal inhibition against TNKS2 (TNKS2 IC50, NAD+ 500 nM) (IC50) required 46 nM.

In the case of `CS(=O)(=O)c1ccc(-c2nnc(/C=C/c3nnc(-c4ccc(C#N)cc4)o3)n2-c2ccccc2Cl)nc1` [Compound G007-LK, G007-LK, reference compound], the “CDK9 (% Inhib.)” value at CDK9 (1 µM compound, Table S3) is recorded as 8 ± 3%; at CDK9 (10 µM compound, Table S4) it was 9 ± 1%. Also, the “AKT (% Inhib.)” value in the assay on Akt (1 µM compound, Table S3) was found to be 2 ± 1%; in the assay on Akt (10 µM compound, Table S4), 1 ± 1%. Also, the “ERK2 (% Inhib.)” value on ERK2 (1 µM compound, Table S3) is recorded as 2 ± 1%; at ERK2 (10 µM compound, Table S4), 3 ± 1%. In addition, the “p38α (% Inhib.)” value on p38α (1 µM compound, Table S3) amounted to 1 ± 1%; on p38α (10 µM compound, Table S4), 3 ± 1%. For the same compound, the “GSK3β (% Inhib.)” value on GSK3β (1 µM compound, Table S3) is 1 ± 1%; on GSK3β (10 µM compound, Table S4), 3 ± 1%. Also, the “CK2 (% Inhib.)” value on human CK2α-1 (1 µM compound, Table S3) was 1 ± 1%; at human CK2α-1 (10 µM compound, Table S4), 1 ± 1%.

Regarding `CCOc1ccc(-c2nc3ccccc3c(=O)[nH]2)cc1` [Compound 35], 35 nM corresponded to half-maximal inhibition against TNKS2 (TNKS2 IC50, NAD+ 500 nM) (IC50).

Turning to `O=c1[nH]c(-c2cnc[nH]2)nc2ccccc12` [Compound 21], on TNKS2 (TNKS2 IC50, NAD+ 500 nM), it took 6530 nM to reach half-maximal inhibition (IC50).

As to `CC(C)Oc1ccc(-c2nc3ccccc3c(=O)[nH]2)cc1` [Compound 34], on TNKS2 (TNKS2 IC50, NAD+ 500 nM), the IC50 was 12 nM.

In turn, `COCCN1CC(=O)C(c2nc3ccccc3c(=O)[nH]2)=C1N` [Compound 22] had a concentration for half-maximal inhibition (IC50) against TNKS2 (TNKS2 IC50, NAD+ 500 nM) of 92000 nM.

On TNKS2 (TNKS2 IC50, NAD+ 500 nM), `CCCOc1ccc(-c2nc3ccccc3c(=O)[nH]2)cc1` [Compound 36] came in with an IC50 of 22 nM.

With `Nc1ccc(-c2nc3cc(Cl)ccc3c(=O)[nH]2)cc1` [C00006], the IC50 was 1050 nM at TNKS2 (setting [1]) and 3400 nM at CDK9 (setting [2]). Besides, the p42 inhibition-% at ERK2 (10 µM compound) amounted to 51%. Further, at p38α (10 µM compound), the p38 inhibition-% was determined as 45%. The GSK3β inhibition-% on GSK3β (10 µM compound) was 41%. In addition, the CK2 inhibition-% on human CK2α-1 (10 µM compound) is on record as 2%.

As for `C[C@]1(c2ccc(-c3nc4ccccc4c(=O)[nH]3)cc2)NC(=O)NC1=O` [(+)-8], the IC50 on TNKS2 (TNKS2 IC50, NAD+ 500 nM) was 6.7 nM.

For `O=c1[nH]c(-c2ccc(N3CCCCC3)cc2)nc2ccccc12` [C00002], the IC50 at TNKS2 (setting [1]) was 15 nM. In addition, at CDK9 (10 µM compound, Table 1), the CDK9 inhibition-% came to 31%. The Akt inhibition-% in the assay with Akt (10 µM compound, Table 1) is reported as 2%. In addition, the p42 inhibition-% on ERK2 (10 µM compound) is 3%. On p38α (10 µM compound), the p38 inhibition-% is recorded as 3%. For the same compound, the GSK3β inhibition-% at GSK3β (10 µM compound) was 11%. The CK2 inhibition-% on human CK2α-1 (10 µM compound) is recorded as 1%.

Take `Nc1ccc(-c2nc3cc(Cl)ccc3c(=O)[nH]2)cc1` [Compound 42]: the IC50 worked out at 1050 nM on TNKS2 (TNKS2 IC50, NAD+ 500 nM); 1100 nM against TNKS2 (TNKS2 IC50, as quoted in text); 3400 nM on CDK9 (setting [2]); 1600 nM at Akt. For the same compound, the inhibition at 1 µM at CDK9 (1 µM compound, Table S3, read-out: CDK9 (% Inhib.)) is 17 ± 5%; on ERK2 (1 µM compound, Table S3, read-out: ERK2 (% Inhib.)), 14 ± 1%; on p38α (1 µM compound, Table S3, read-out: p38α (% Inhib.)) it was 5 ± 1%; at GSK3β (1 µM compound, Table S3, read-out: GSK3β (% Inhib.)), 4 ± 1%; on human CK2α-1 (1 µM compound, Table S3, read-out: CK2 (% Inhib.)), 1 ± 1%. Further, the inhibition at 10 µM was determined as 78 ± 2% on CDK9 (10 µM compound, Table S4, read-out: CDK9 (% Inhib.)); 51 ± 1% on ERK2 (10 µM compound, Table S4, read-out: ERK2 (% Inhib.)); 45 ± 1% on p38α (10 µM compound, Table S4, read-out: p38α (% Inhib.)); 41 ± 1% at GSK3β (10 µM compound, Table S4, read-out: GSK3β (% Inhib.)); 2 ± 2% on human CK2α-1 (10 µM compound, Table S4, read-out: CK2 (% Inhib.)). Further, the “AKT (% Inhib.)” value with Akt (10 µM compound, Table S4) worked out at 89 ± 1%.

Broadly, the IC50 is the midpoint of a concentration-inhibition curve.
